In patent publication US10640518B2, “Condensed heterocyclic compounds and pesticides” (Nissan Chemical Corporation, priority 2016, dated 2020) one finds mortality data, which are given here for five compounds.

A value given as a limit tells only on which side of the number the result lay.

As a reminder, the mortality is the share of the test organisms that died. Read a high mortality as a strong lethal effect.

Common to all, as to assay type: in vivo
The subject of one assay is Plutella xylostella. Nature of the assay: Insecticidal test on Plutella xylostella (cabbage leaf soaking). To be noted: 144 h, 500 ppm solution, cabbage leaves soaked, 3rd-instar larvae, 6 days after, 25° C. The method, then:
Test Example 2: Insecticidal Test on Plutella xylostella
(§1) 10% emulsifiable concentrates (or 10% wettable powders) of compounds of the present invention were diluted with water containing a spreader to obtain 500 ppm solutions. Leaves of cabbage were soaked in the solutions for about 10 seconds. After the soaking, the leaves were dried in air and placed in dishes. In each dish, five 3rd-instar larvae of Plutella xylostella were released, and the dishes were covered with lids and placed in an incubator at 25° C. 6 days after, dead insects in the dishes were counted, and the mortality was calculated by using the same equation as in Test Example 1. The test was carried out in duplicate.

In the next assay the test system is Spodoptera litura. Nature of the assay: Insecticidal test on Spodoptera litura (cabbage leaf soaking). As to conditions: 144 h, 500 ppm solution, cabbage leaves soaked, 3rd-instar larvae, 6 days after, 25° C. Here is the method:
Test Example 3: Insecticidal Test on Spodoptera litura
as §1, with “Spodoptera litura” for “Plutella xylostella”

The next assay concerns Myzus persicae. Nature of the assay: Insecticidal test on Myzus persicae (spray). To be noted: 144 h, 500 ppm solution sprayed (2.5 mg/cm^2), apterous adults on cabbage leaves, 6 days after, 25° C. Here is the method: Test Example 5: Insecticidal Test on Myzus persicae
Wet absorbent cotton was laid on glass dishes having an inner diameter of 3 cm, and covered with leaves of cabbage cut into circles having a diameter of 3 cm, and 4 apterous adults of Myzus persicae were released. After a day, 10% emulsifiable concentrates (or 10% wettable powders) of compounds of the present invention were diluted with water containing a spreader to obtain 500 ppm solutions. The solutions were sprayed from a rotary spray tower (2.5 mg/cm^2), and the dishes were covered with lids and placed in an incubator at 25° C. 6 days after, dead insects were counted, and the mortality was calculated by using the same equation as in Test Example 1. The test was carried out in duplicate.

The subject of assay [1] is Nilaparvata lugens. Description: Systemic insecticidal test on Nilaparvata lugens (root dipping). As to conditions: 20 ppm solution, rice seedling roots dipped 7 days, 3rd-instar larvae, 6 days after the release. The method, then: Test Example 7: Systemic Insecticidal Test on Nilaparvata lugens
10% emulsifiable concentrates of compounds of the present invention were diluted with tap water to obtain 20 ppm solutions, and root of rice plug seedlings (at the 2-leaf stage) were dipped in the solutions. 7 days after, the rice seedlings were picked and put in test tubes, and in each tube, five 3rd-instar larvae of Nilaparvata luqens were released, and the tubes were capped with sponge and placed in an incubator at 25° C. 6 days after the release of the insects, dead insects were counted, the and the mortality was calculated by using the same equation as in Test Example 1. The test was carried out in duplicate.

The next assay relates to Rhipicephalus sanguineus. Description: Test on the effect on Rhipicephalus sanguineus (thin film contact). As to conditions: 96 h, application dose 10 μg/cm^2, protonymphs, 4 days after the release, 25° C. Here is the method: Test Example 10: Test on the Effect on Rhipicephalus sanguineus
(§2) 3.5 mg of compounds of the present invention were diluted with 3.5 ml of acetone to obtain 1,000 ppm solutions. 350 μl of the solutions were applied to the bottoms and the side walls of glass containers with an inner wall surface area of 35 cm^2, and acetone was volatilized to prepare thin films of the compounds on the inner walls of the glass containers. Since the inner wall surface area of each glass container was 35 cm^2, the application dose was 10 μg/cm^2.
To each glass container, five protonymphs (male and female) of Rhipicephalus sanguineus were released, and the containers were covered with lids and placed in an incubator at 25° C. 4 days after the release of the ticks, dead ticks were counted, and the mortality was calculated by using the same equation as in Test Example 1.

The test system of a further assay is Ctenocephalides felis. Description: Test on the effect on Ctenocephalides felis (thin film contact). To be noted: 96 h, application dose 10 μg/cm^2, adults, 4 days after the release, 25° C. Here is the method:
Test Example 11: Test on the Effect on Ctenocephalides felis
as §2
To each glass container, five adults (male and female) of Ctenocephalides felis were released, and the containers were covered with lids and placed in an incubator at 25° C. 4 days after the release of the fleas, dead fleas were counted, and the mortality was calculated by using the same equation as in Test Example 1.

A further assay deals with Reticulitermes speratus. Description: Insecticidal test on Reticulitermes speratus (treated river sand). To be noted: 240 h, 0.5 ml of 100 ppm solution on 10 g river sand, adults, 10 days after, 25° C. Here is the method: Test Example 15: Insecticidal Test on Reticulitermes speratus
10% emulsifiable concentrates of the compounds of the present invention were prepared. The emulsifiable concentrates were diluted with water to prepare 100 ppm solutions. 0.5 ml of the solutions were dropped on 10 g of river sand and mixed. In dishes having an inner diameter of 4 cm, 1% agar (2 cm square) was laid, and the treated river sand and a filter paper piece as bait were placed. Adults of Reticulitermes speratus were released in the dishes, and the dishes were placed in an incubator at 25° C. 10 days after, dead insects in the dishes were counted, and the mortality was calculated by using the same equation as in Test Example 1. The test was carried out in duplicate.

A further assay has as its system Culex pipiens molestus. Nature of the assay: Insecticidal test on Culex pipiens molestus (larvae in well plate). To be noted: 24 h. Here is the method: Test Example 16: Insecticidal Test on Culex pipiens molestus
2 mg of compounds of the present invention were dissolved in 0.2 ml of dimethyl sulfoxide to prepare 1% (w/v) dimethyl sulfoxide solutions. The solutions were diluted with distilled water by a factor of 100 to prepare 100 ppm solutions. To 1.9 ml plastic plates (Cellstar 24 well plate, manufactured by Greiner Bio-One International GmbH) as test plates, 0.7 ml of water containing 10 to 30 larvae of Culex pipiens molestus one day after hatching, and 0.2 ml of an aqueous suspension of aquarium fish food (TetraMin manufactured by Spectrum Brands Japan) as bait, were dropped. 0.1 ml of the 100 ppm solutions were dropped, and the plates were placed in an incubator at 25° C. 1 day after, dead larvae were counted, and the mortality was calculated by using the same equation as in Test Example 1. The test was carried out in duplicate.

The subject of the next assay is Aedes albopictus. Nature of the assay: Insecticidal test on Aedes albopictus (larvae in well plate). To be noted: final concentration 10 ppm, larvae one day after hatching, 3 days after, 25° C. Here is the method:
Test Example 17: Insecticidal Test on Aedes albopictus
2 mg of compounds of the present invention were dissolved in 0.2 ml of dimethyl sulfoxide to prepare 1% (w/v) dimethyl sulfoxide solutions. 0.01 ml of the solutions were mixed with 0.99 ml of pure water to prepare 0.01% (w/v) solutions. To 0.3 ml plastic plates (Cellstar 96 well culture plates, manufactured by Greiner Bio-One International GmbH) as test plates, 0.09 ml of distilled water containing 30 larvae of Aedes albopictus one day after hatching was dropped, and 0.01 ml of the 0.01% (w/v) solutions were dropped so that the final concentration would be 10 ppm. The plates were covered with lids and placed in an incubator at 25° C. 3 days after, dead larvae were counted, and the mortality was calculated by using the same equation as in Test Example 1.

For assay [2], the system named is Frankliniella occidentalis. Description: Insecticidal activity on Frankliniella occidentalis (spray on kidney bean leaves). To be noted: 48 h, 500 ppm solution sprayed (2.5 mg/cm^2), larvae on kidney bean leaves, 2 days after. Here is the method: Test Example 4: Insecticidal Activity on Frankliniella occidentalis
In styrol cups having an inner diameter of 7 cm, wet filter paper was laid, kidney bean leaves cut into a 3 cm square were laid on the paper, and each leaf was inoculated with 20 larvae of Frankliniella occidentalis. 10% emulsifiable concentrates (or 10% wettable powders) of compounds of the present invention were diluted with water containing a spreader to obtain 500 ppm solutions. 2.5 ml of the solutions were sprayed from a rotary spray tower into the styrol cups (2.5 mg/cm^2). 2 days after, dead insects were counted, and the insect damage degree on kidney bean leaves was examined. The mortality was calculated by using the same equation as in Test Example 1. The insect damage degree was evaluated from the proportion of the area with insect damage on the leaves, as follows. 1: 0 to 20% insect damage, 2: 20 to 50% insect damage, 3: 50 to 70% insect damage, and 4: 70% or higher insect damage. The test was carried out in duplicate.

Assay [3] concerns Nilaparvata lugens. Nature of the assay: Insecticidal test on Nilaparvata lugens (rice sheath soaking). As to conditions: 144 h, 500 ppm solution, rice sheaths soaked, 3rd-instar larvae, 6 days after, 25° C. Here is the method: Test Example 1: Insecticidal Test on Nilaparvata lugens
10% emulsifiable concentrates (or 10% wettable powders) of compounds of the present invention were diluted with water containing a spreader to obtain 500 ppm solutions. Rice sheaths were soaked in the solutions for about 10 seconds. After the soaking, the rice sheaths were dried in air and put in test tubes. In each tube, five 3rd-instar larvae of Nilaparvata luqgens were released, and the tubes were capped with sponge and placed in an incubator at 25° C. 6 days after, dead insects in the test tubes were counted, and the mortality was calculated in accordance with the following equation. The test was carried out in duplicate. Mortality (%)=(the number of dead insects/the number of released insects)×100)

Turning to `CCS(=O)(=O)c1c(-c2nc3cc(C(F)(F)F)cnc3n2C)nn2cc(Cl)ccc12` [1-1-001a, 2-[6-chloro-3-(ethylsulfonyl)pyrazolo[1,5-a]pyridin-2-yl]-3-methyl-6-(trifluoromethyl)-3H-imidazo[4,5-b]pyridine], the mortality at 500 ppm with Plutella xylostella, in the assay on Spodoptera litura and in the assay on Myzus persicae was at least 90% each time. In the assay with Nilaparvata lugens [1], this compound gave a mortality at 20 ppm of at least 90%. Also, the mortality at 10 µg/cm2 with Rhipicephalus sanguineus and in the assay with Ctenocephalides felis was at least 50% each time. The values for the mortality at 100 ppm with Reticulitermes speratus and in the assay on Culex pipiens molestus were at least 70% and 100%, respectively. This compound also yielded a mortality at 10 ppm in the assay with Aedes albopictus of at least 70%.

On to `CCS(=O)(=O)c1c(-c2nc3cc(C(F)(F)F)cnc3n2C)nn2cc(-n3ccc(C(F)(F)F)n3)ccc12` [1-1-003a, 2-[3-(ethylsulfonyl)-6-(3-(trifluoromethyl)-1H-pyrazol-1-yl)pyrazolo[1,5-a]pyridin-2-yl]-3-methyl-6-(trifluoromethyl)-3H-imidazo[4,5-b]pyridine], for which the mortality at 500 ppm in the assay with Plutella xylostella and with Spodoptera litura was at least 90% in each case. Besides, the mortality at 10 µg/cm2 with Ctenocephalides felis is at least 50%. For the same compound, the mortality at 10 ppm in the assay with Aedes albopictus was at least 70%.

In the case of `CCS(=O)(=O)c1c(-c2cn3cnc(C(F)(F)C(F)(F)F)cc3n2)nn2ccc(C(F)(F)F)cc12` [1-3-001a, 2-[3-(ethylsulfonyl)-5-(trifluoromethyl)pyrazolo[1,5-a]pyridin-2-yl]-7-(perfluoroethyl)imidazo[1,2-c]pyrimidine], the mortality at 500 ppm is at least 90% with Plutella xylostella, at least 90% with Spodoptera litura and at least 50% in assay [2]. The mortality at 10 µg/cm2 with Rhipicephalus sanguineus and in the assay with Ctenocephalides felis was at least 50% in each case. In the assay on Aedes albopictus, this compound yielded a mortality at 10 ppm of at least 70%.

Take `CCS(=O)(=O)c1c(-c2cn3nc(C(F)(F)C(F)(F)F)sc3n2)nn2ccc(C(F)(F)F)cc12` [1-5-001a, 6-[3-(ethylsulfonyl)-5-(trifluoromethyl)pyrazolo[1,5-a]pyridin-2-yl]-2-(perfluoroethyl)imidazo[2,1-b][1,3,4]thiadiazole]: the mortality at 500 ppm with Plutella xylostella and with Spodoptera litura was at least 90% each time. In addition, the mortality at 10 µg/cm2 with Rhipicephalus sanguineus and in the assay on Ctenocephalides felis was at least 50% each time. Further, the mortality at 10 ppm with Aedes albopictus is at least 70%.

For the compound `CCS(=O)(=O)c1c2ccc(C(F)(F)F)cc2nn1-c1nc2cc(C(F)(F)F)cnc2n1C` [1-10-001a, 2-[3-(ethylsulfonyl)-6-(trifluoromethyl)-2H-indazol-2-yl]-3-methyl-6-(trifluoromethyl)-3H-imidazo[4,5-b]pyridine], the mortality at 500 ppm in the assay with Nilaparvata lugens [3], in the assay on Plutella xylostella, in the assay on Spodoptera litura and with Myzus persicae was at least 90% in each case. In the assay on Nilaparvata lugens [1], this compound gave a mortality at 20 ppm of at least 90%. Further, in the assay on Ctenocephalides felis, the mortality at 10 µg/cm2 was at least 50%. The compound also registered a mortality at 100 ppm with Reticulitermes speratus of at least 70%.
